Entries after “also recorded” stand apart in the source; their conditions may differ. Counter-ions that a name gives are not always drawn.
Key:
[1] = test system: children with non-syndromic autism spectrum disorder (ASD) and language impairment; assay: Randomized placebo-controlled trial: Aberrant Behavior Checklist (ABC), parent questionnaire; assay type: in vivo, human; conditions: lower = less problems; for ABC Hyperactivity, estimated effect / ABC Inappropriate speech, estimated effect / ABC Irritability, estimated effect / ABC Lethargy, estimated effect / ABC Stereotyped behavior, estimated effect / ABC Total Score, estimated effect: vs placebo, mixed-model regression, calcium salt
Text: The Aberrant Behavior Checklist (“ABC”) is a 58-item questionnaire that measures disruptive behaviors, including Irritability (15 items, range 0-45); Social Withdrawal (16 items, range 0-48); Stereotypy (7 items, range 0-21); Hyperactivity (16 items, range 0-48) and Inappropriate Speech (4 items, range 0-12). Each item is rated 0 to 3 with higher scores indicating greater severity. Multiple ASD clinical trials have used it and it has convergent and divergent validity. […] This two-arm double-blind randomized placebo-controlled parallel study with a 1:1 allocation was performed at Arkansas Children's Research Institute (Little Rock, Ark., USA) from 4 Jun. 2012 to 22 Nov. 2013. Parent and teacher questionnaires were requested at baseline and 6 and 12 weeks after starting treatment. Parents were asked to deliver baseline questionnaires to teachers or therapists. After the first visit, questionnaires were mailed to the parents and teachers at least 1 week prior to the target date of completion. Parents were asked to bring the completed teacher and parent 12-week questionnaires to the final assessment. Other questionnaires were returned in a preaddressed postage-paid envelope. The target dose of the intervention (INN: DL folinic acid calcium salt; USAN: leucovorin calcium) was 2 mg kg^−1 per day (maximum 50 mg per day) in two equally divided doses with half of the target dose given during the first 2 weeks. Dye-free, milk-product-free, vegetarian capsules were provided in three strengths (5, 10 and 25 mg) by Lee Silsby Compounding Pharmacy (Cleveland Heights, Ohio, USA). Certificate of analysis was provided for each capsule strength by an independent analytical service (Eagle Analytical Services, Houston, Tex., USA) for each batch of capsules produced. In all cases, potency was at least 99%. Secondary outcomes. Secondary outcome measures included the Ohio Autism Clinical Impression Scale (OACIS), Vineland Adaptive Behavior Scale 2nd Edition (VABS) Survey Interview Form and several questionnaires. Parents and teachers were asked to complete the Aberrant Behavior Checklist (ABC), Social Responsiveness Scale (SRS) and Behavioral Assessment System for Children 2nd Edition (BASC). Only parents were asked to complete the Autism Impact Measure (AIM) and Autism Symptoms Questionnaire (ASQ). Secondary outcome measures were analyzed using the mixed-model regression. Because of the large number of secondary outcomes, correction for multiple comparisons was conducted using the false discovery rate.

[2] = test system: children with non-syndromic autism spectrum disorder (ASD) and language impairment; assay: Randomized placebo-controlled trial: adverse effects monitoring; assay type: in vivo, human
Text: Adverse events were monitored every 3 weeks using a modification of the Dosage Record Treatment Emergent Symptom Scale. Adverse events were considered related to the treatment if they started or worsened following the start of the trial. If adverse events were persistent or severe, the parents were offered the option of halving the dose or discontinuing the intervention. The dose could only be reduced once and was never increased if reduced.
The total number of patients reporting each adverse event was compared across treatment groups using a Fisher exact test. Adverse events that were possibly, probably or definitely related to the treatments were analyzed.

[3] = test system: children with neurodevelopmental regression and neurological abnormalities (cerebral folate deficiency); conditions: six children with cerebral folate deficiency; cited from earlier work
[4] = folinic acid group n = 21, 12 weeks

In the case of `Nc1nc2c(c(=O)[nH]1)N(C=O)C(CNc1ccc(C(=O)N[C@@H](CCC(=O)O)C(=O)O)cc1)CN2` (mixture of isomers) [Folinic acid, DL folinic acid calcium salt], the “ABC Inappropriate speech, 12-week assessment mean” value ([1]; 2 mg kg^−1 per day, 12 weeks, baseline 5.2) is reported as 4.0 Raw Score, the “ABC Stereotyped behavior, 12-week assessment mean” value ([1]; 2 mg kg^−1 per day, 12 weeks, baseline 6.1) is reported as 3.7 Raw Score and the “ABC Lethargy, 12-week assessment mean” value ([1]; 2 mg kg^−1 per day, 12 weeks, baseline 13.1) is reported as 9.7 Raw Score. The “ABC Irritability, 12-week assessment mean” value ([1]; 2 mg kg^−1 per day, 12 weeks, baseline 13.4) was 9.1 Raw Score, the “ABC Hyperactivity, 12-week assessment mean” value ([1]; 2 mg kg^−1 per day, 12 weeks, baseline 25.0) was 22.1 Raw Score and the “ABC Total Score, 12-week assessment mean” value ([1]; 2 mg kg^−1 per day, 12 weeks, baseline 62.7) was 48.5 Raw Score. For the same compound, the “ABC Hyperactivity, estimated effect” value [1] was −1.8 Raw Score, the “ABC Inappropriate speech, estimated effect” value [1] was −1.7 Raw Score and the “ABC Irritability, estimated effect” value [1] was −1.2 Raw Score. The “ABC Lethargy, estimated effect” value [1] was −1.4 Raw Score, the “ABC Stereotyped behavior, estimated effect” value [1] was −0.9 Raw Score and the “ABC Total Score, estimated effect” value [1] was −4.7 Raw Score. For the same compound, the “ABC Hyperactivity, estimated effect” value ([1]; listed as folinic acid) was “significantly improved”, the “ABC Inappropriate speech, estimated effect” value ([1]; listed as folinic acid) was “significantly improved” and the “ABC Irritability, estimated effect” value ([1]; listed as folinic acid) was “significantly improved”. For the same compound, the “ABC Lethargy, estimated effect” value ([1]; listed as folinic acid) was “significantly improved”, the “ABC Stereotyped behavior, estimated effect” value ([1]; listed as folinic acid) was “significantly improved” and the “ABC Total Score, estimated effect” value ([1]; listed as folinic acid) was “significantly improved”. For the same compound, the “Adverse effects, difference between treatment groups (folinic acid vs placebo)” value ([2]; 2 mg kg^−1 per day, 12 weeks, Fisher exact test, calcium salt) was “no significant difference; also recorded: no significant group differences”, the “Aggression, incidence” value [2, 4] was “(10%)” and the “Any adverse effect, incidence” value [2, 4] was “(57%)”. For the same compound, the “Blurred vision, incidence” value [2, 4] was “(0%)”, the “Confusion, incidence” value [2, 4] was “(5%)” and the “Constipation, incidence” value [2, 4] was “(10%)”. The “Decreased appetite, incidence” value [2, 4] was “(10%)”, the “Decreased motor activity, incidence” value [2, 4] was “(0%)” and the “Depression, incidence” value [2, 4] was “(5%)”. For the same compound, the “Diarrhea, incidence” value [2, 4] was “(5%)”, the “Dizziness, incidence” value [2, 4] was “(0%)” and the “Drowsiness, incidence” value [2, 4] was “(0%)”. For the same compound, the “Dry mouth, excessive thirst, incidence” value [2, 4] was “(14%)”, the “Emotional lability, incidence” value [2, 4] was “(5%)” and the “Excitement or agitation, incidence” value [2, 4] was “(29%)”. The “Gastroesophageal reflux, incidence” value [2, 4] was “(5%)”, the “Headache, incidence” value [2, 4] was “(10%)” and the “Increased motor activity, incidence” value [2, 4] was “(29%)”. The “Increased salivation, incidence” value [2, 4] was “(0%)”, the “Increased tantrums, incidence” value [2, 4] was “(5%)” and the “Insomnia, incidence” value [2, 4] was “(29%)”. For the same compound, the “Involuntary movements, incidence” value [2, 4] was “(10%)”, the “Nasal congestion, incidence” value [2, 4] was “(0%)” and the “Nausea/vomiting, incidence” value [2, 4] was “(0%)”. For the same compound, the “Rash, incidence” value [2, 4] was “(0%)”, the “Restlessness, incidence” value [2, 4] was “(14%)” and the “Stiffness, incidence” value [2, 4] was “(5%)”. The “Sweating, incidence” value [2, 4] was “(0%)”, the “Tremors, incidence” value [2, 4] was “(0%)” and the “Weight gain, incidence” value [2, 4] was “(10%)”. The “Weight loss, incidence” value [2, 4] was “(5%)”, the Serious adverse events ([2]; folinic acid group, 2 mg kg^−1 per day, 12 weeks) was “no serious adverse events” and the CSF folate concentrations [3] was “normalized”. For the same compound, the Neurological symptoms [3] was “significantly improved”.
